# Measured values reported in patent US9539256B2 (THE BOARD OF REGENTS OF THE UNIVERSITY OF TEXAS SYSTEM, priority 2012, dated 2017).
# “Also recorded” adds a separate entry of the source.
# Columns and labels:
# [1] = tested on: MIA PaCa-2; assay: Orthotopic MIA PaCa-2 pancreatic cancer metastasis model; format: in vivo; conditions: athymic nude mice; 50 mg/kg per day, oral gavage; weekly bioluminescence imaging; 50 mg/kg/day
# Procedure: FIG. 14. ESI-09 inhibits PDA metastasis in vivo. MIA PaCa-2 stably expressing luciferase was orthotopically implanted into the pancreas of athymic nude mice. The mice were randomly divided into two groups and treated with vehicle or ESI-09 (50 mg/kg, oral gavage), respectively. The growth and metastasis of the tumors were monitored by weekly bioluminescence imaging using the IVIS bioluminescence imaging system.
# It has been recently reported that EPAC1 is over-expressed in pancreatic adenocarcinoma (Lorenz et al. (2008) Pancreas 37: 102-103). However, the functional role of EPAC1 elevation in this neoplasm is not clear. The inventors sought to employ ESI-09 to determine the role of EPAC1 signaling in pancreatic cancer. […] In order to determine if the observed impact on cell migration is EPAC1 specific, the effect of suppressing EPAC1 expression on AsPC-1 and PANC-1 migration using RNAi was examined. […] To further determine how ESI-09 inhibits PDA cell migration and invasion, a cell adhesion assay was performed using a collagen I matrix. […] To determine the in vivo anti-metastatic effect of ESI-09, MIA PaCa-2 stably expressing luciferase were orthotopically implanted into the pancreas of athymic nude mice. […] The growth and metastasis of the tumors were monitored by weekly bioluminescence imaging using the IVIS bioluminescence imaging system.
# [2] = target: T1, EPAC2 (Homo sapiens, UniProt Q8WZA2); assay: Rap1 activation assay in HEK293/EPAC2 cells; format: cell-based; conditions: HEK293/EPAC2 cells; pre-treatment with 10 μM compound
# T1 construct: HEK293 cells that ectopically express full-length EPAC2 proteins; expressed in transfected cells; host or cells: HEK293
# T1 sequence (Q8WZA2 whole entry, species assumed): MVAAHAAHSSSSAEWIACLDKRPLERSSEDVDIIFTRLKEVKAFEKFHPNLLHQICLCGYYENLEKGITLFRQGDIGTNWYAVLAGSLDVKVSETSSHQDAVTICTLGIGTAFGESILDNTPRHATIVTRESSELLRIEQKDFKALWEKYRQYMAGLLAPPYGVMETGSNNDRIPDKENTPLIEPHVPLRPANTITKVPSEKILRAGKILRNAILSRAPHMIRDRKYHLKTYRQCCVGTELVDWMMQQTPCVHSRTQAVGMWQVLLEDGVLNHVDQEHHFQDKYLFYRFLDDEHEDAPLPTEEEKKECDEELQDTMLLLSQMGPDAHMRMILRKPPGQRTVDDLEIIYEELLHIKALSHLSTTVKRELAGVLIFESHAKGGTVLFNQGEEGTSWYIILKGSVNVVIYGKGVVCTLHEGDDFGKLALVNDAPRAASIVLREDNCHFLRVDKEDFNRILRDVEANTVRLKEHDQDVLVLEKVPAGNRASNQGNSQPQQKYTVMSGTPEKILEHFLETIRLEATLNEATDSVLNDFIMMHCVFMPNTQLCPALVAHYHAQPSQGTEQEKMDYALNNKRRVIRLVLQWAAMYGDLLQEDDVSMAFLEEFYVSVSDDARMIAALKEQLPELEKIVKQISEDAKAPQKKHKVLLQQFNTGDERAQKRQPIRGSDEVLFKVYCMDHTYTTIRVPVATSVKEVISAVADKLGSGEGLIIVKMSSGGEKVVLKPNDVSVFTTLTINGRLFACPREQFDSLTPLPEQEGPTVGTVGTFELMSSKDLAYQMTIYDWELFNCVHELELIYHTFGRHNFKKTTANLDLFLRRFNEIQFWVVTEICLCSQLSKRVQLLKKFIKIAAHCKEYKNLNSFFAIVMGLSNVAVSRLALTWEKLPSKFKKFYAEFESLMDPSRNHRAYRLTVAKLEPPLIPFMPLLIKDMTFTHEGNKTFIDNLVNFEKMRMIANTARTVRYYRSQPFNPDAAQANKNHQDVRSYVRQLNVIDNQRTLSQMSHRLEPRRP
# Procedure: FIGS. 9A-9B. Effects of EPAC2-specific antagonists on 007-AM-mediated cellular activation of Rap1. […] GTP-bound Rap1 (Rap1GTP) obtained by a Ral-GDSRBD-GST pull-down assay and total cellular Rap1 were detected by immunoblotting with Rap1-specific antibody. […] At test was used to determine statistical significance (*P<0.05).
# Cellular activation of Rap1 was determined by pull-down of lysates derived from human vascular smooth muscle cell and HEK293 cells stably expressing EPAC1 or EPAC2 employing Ral-GDS-RBD-GST affinity beads as described earlier (Mei and Cheng (2005) Molecular Biosystems 1: 325-331).
# [3] = In vivo pharmacokinetic study, blood time-concentration curve; conditions: single IP injection 10 mg/kg, mice
# Procedure: FIG. 19. Mice blood time-concentration curve of ESI-09.
# To determine the bioavailability of EPAC inhibitors, an IP injection formulation was developed in which the compounds were dissolved in ethanol and then diluted 1:10 with a 10% Tween 80 in normal saline solution. This formulation was determined suitable by passing the simulated in vivo blood dilution assay. In vivo pharmacokinetic studies were performed in four week old female C57BL6/N mice.
# [4] = target: T2, EPAC1 (Homo sapiens, UniProt O95398); assay: Rap1-GDP exchange (GEF) activity assay, EPAC1
# T2 sequence (O95398 1-923): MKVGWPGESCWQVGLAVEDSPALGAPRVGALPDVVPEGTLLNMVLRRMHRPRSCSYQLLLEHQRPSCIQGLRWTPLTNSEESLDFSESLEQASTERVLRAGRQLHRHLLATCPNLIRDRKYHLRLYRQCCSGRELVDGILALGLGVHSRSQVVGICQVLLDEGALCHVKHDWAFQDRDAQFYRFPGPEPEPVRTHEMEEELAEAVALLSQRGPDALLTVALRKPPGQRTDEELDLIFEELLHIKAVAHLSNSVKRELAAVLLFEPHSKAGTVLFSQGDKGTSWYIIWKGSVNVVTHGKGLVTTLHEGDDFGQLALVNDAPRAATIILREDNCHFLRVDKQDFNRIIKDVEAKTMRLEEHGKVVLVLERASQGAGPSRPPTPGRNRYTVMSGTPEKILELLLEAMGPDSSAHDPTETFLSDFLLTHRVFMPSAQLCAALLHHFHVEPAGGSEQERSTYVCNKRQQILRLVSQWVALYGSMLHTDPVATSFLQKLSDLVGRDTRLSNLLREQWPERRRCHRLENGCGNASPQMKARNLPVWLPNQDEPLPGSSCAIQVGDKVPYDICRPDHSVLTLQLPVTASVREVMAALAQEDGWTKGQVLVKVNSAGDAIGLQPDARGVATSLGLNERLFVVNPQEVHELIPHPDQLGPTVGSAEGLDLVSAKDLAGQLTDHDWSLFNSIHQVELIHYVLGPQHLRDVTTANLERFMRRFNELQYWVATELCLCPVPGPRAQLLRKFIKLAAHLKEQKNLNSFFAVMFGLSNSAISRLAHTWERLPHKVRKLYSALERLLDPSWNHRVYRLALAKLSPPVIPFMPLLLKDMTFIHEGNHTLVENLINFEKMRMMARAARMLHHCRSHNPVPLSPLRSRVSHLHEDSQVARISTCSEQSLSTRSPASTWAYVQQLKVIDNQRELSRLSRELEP
# [5] = tested on: AsPC-1, BxPC-3, and PANC-1; assay: Wound healing assay; format: cell-based; conditions: 10.0 μM; AsPC-1, BxPC-3, PANC-1
# Procedure: Cells were grown to 95-100% confluency before a scratch wound was made. The medium was changed to RPMI 10% FBS containing 10.0 μM ESI-09. The cells were then incubated at 37° C. in 5% CO2. The wound was imaged at 0 hours and 22 hours after changing the medium. Healing rate was determined by calculating the percentage of wound closure normalized to a 1.0 mm wound according to the following equation: % wound closure=(distance between the edges of the wound before treatment with ES-09−distance between the edges of the wound 22 hours post treatment with ES-09)/1.0×100.
# [6] = tested on: R. australia; assay: R. australia infection of HUVEC cells, immunofluorescence; format: cell-based; conditions: 24 hours post infection
# Procedure: FIG. 22. ESI-09 treatment suppresses cellular entry of R. australia. HUVEC cells treated with vehicle or ESI-09 were infected with R. australia. The levels of R. australia (Red) and EPAC1 (Green) were monitored with immunofluorescence staining 24 hours post infection.
# To investigate the mechanism of EPAC1 inhibition-mediated protection of R. australia infection, HUVEC cells treated with vehicle or ESI-09 were infected with R. australia.
smiles,measurement,setting,value
"CC(C)(C)c1cc(C(=O)C(C#N)=NNc2cccc(Cl)c2)no1 [ESI-09, 3-(5-Tert-Butyl-Isoxazol-3-Yl)-2-[(3-Chlorophenyl)-Hydrazono]-3-Oxo-Propionitrile]",PDA metastasis,[1],reduced; also recorded: inhibits
same,007-AM induced Rap1 activation,[2],significant reduction
same,half-life,"[3]; female, C57BL6/N, mouse, whole blood",3.5 h
same,"blood levels, maximal values",[3],"42,520 ng/ml"
same,time of maximal blood level,[3],0.5 h
same,IC50,[4],3.2 µM
same,"cell migration, wound healing",[5],significant decrease; also recorded: significantly (P<0.05) decreased
same,number of intracellular R. australia (cellular entry),[6],dramatically reduced; also recorded: suppresses
